Reference: US5861393A, “Antithrombotic amidinophenylalanine and amidinopyridylalanine derivatives” (Pfizer Inc., priority 1993, dated 1999)
Structures can show the parent of a compound that is named as a salt.

Assays:
Format in all cases: biochemical
bovine thrombin = bovine thrombin (Bos taurus, UniProt P00735); assay: Chromogenic assay, inhibition of thrombin; settings: in vitro; substrate S2238; pH 8.0; 30 minutes at 30° C.
Description: (§1) The inhibition of thrombin, trypsin, plasmin or factor Xa is measured in 96 well plate chromogenic assays. The percentage inhibition and IC50 are calculated from triplicate samples of an 8 concentration dose-response curve. From the substrate Km and IC50, the Ki for each inhibitor is calculated. All assays are carried out in a total incubation of 200 μl of 50 mM HEPES and 150 mM NaCl at pH 8.0, and all compound dilutions are preincubated with enzyme at room temperature for 15 minutes prior to addition of substrate. After 30 minutes incubation at 30° C., the O.D. is measured at […] in a 96 well plate reader. Thrombin activity is measured using bovine thrombin and S2238 (H-D-Phe-Pip-Arg-pNA), bovine pancreatic trypsin is assayed with S2222 (Benz-Isoleu-Glu-Gly-Arg-pNA), bovine plasma plasmin is assayed with Chromozym PL (Tosyl-Gly-Pro-Lys-pNA)and bovine factor Xa is assayed in 50 mM Tris,150mM NaCl,pH 7.5 buffer with S2222.

[1] = target: T1, bovine pancreatic trypsin (Bos taurus, UniProt P00760); assay: Chromogenic assay, inhibition of trypsin; settings: in vitro; substrate S2222; pH 8.0; 30 minutes at 30° C.
T1 construct: from tissue; host or cells: bovine pancreas
T1 sequence (P00760 24-246): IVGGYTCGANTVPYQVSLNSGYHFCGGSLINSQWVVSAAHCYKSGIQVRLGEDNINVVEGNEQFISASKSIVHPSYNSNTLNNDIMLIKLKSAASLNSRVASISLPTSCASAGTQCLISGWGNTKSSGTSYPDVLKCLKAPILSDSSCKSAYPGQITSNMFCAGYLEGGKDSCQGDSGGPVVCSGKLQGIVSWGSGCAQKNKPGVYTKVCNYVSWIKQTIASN
Description: as §1

bovine plasma plasmin = target: T2, bovine plasma plasmin (Bos taurus, UniProt P06868); assay: Chromogenic assay, inhibition of plasmin; settings: in vitro; substrate Chromozym PL; pH 8.0; 30 minutes at 30° C.
T2 construct: from tissue; host or cells: bovine plasma
Description: as §1

T2 sequence (P06868 584-812 limits assumed): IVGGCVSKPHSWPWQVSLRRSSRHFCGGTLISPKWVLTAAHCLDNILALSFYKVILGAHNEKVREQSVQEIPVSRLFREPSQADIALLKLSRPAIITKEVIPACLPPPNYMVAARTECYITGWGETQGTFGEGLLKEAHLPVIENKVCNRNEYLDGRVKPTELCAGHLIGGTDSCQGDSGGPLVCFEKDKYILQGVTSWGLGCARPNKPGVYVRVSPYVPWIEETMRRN
T2 sequence (P06868 105-583 partner limits assumed): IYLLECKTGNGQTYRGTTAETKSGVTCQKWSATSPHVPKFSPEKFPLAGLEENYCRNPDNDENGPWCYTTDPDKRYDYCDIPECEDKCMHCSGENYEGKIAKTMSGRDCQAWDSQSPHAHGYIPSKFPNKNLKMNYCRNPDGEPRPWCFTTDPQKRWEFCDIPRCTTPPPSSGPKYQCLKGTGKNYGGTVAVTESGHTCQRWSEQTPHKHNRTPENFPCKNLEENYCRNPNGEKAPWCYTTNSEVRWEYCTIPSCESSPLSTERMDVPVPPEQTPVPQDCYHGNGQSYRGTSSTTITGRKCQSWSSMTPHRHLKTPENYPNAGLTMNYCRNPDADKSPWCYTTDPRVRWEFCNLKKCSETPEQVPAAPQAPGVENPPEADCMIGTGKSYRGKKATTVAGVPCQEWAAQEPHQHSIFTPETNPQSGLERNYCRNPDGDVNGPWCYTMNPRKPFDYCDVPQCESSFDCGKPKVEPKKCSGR

SMILES	Ki (bovine thrombin) [nM]	Ki [1] [nM]	Ki (bovine plasma plasmin) [nM]
CC1=CCN(C(=O)[C@H](Cc2cccc(C(=N)N)c2)NS(=O)(=O)c2ccc3c(c2)CCN(C)C3)[C@@H](C(=O)O)C1 [Example 2, 4-Methyl-1-[N-(2-methyl-1,2,3,4-tetrahydroisoquinoline-6-sulphonyl)-3-amidino-(S)-phenylalanyl]-1,2,3,6-tetrahydropyridine-2(R)-carboxylic acid dihydrochloride]	3.9	57	6100
CC1=CCN(C(=O)[C@H](Cc2cccc(C(=N)N)c2)NS(=O)(=O)c2ccc3c(c2)C(CC(=O)N(C)C)N(C)CC3)[C@@H](C(=O)O)C1 (stereo partly drawn) [Example 5, 1-{N-[1(R,S)-(N,N-Dimethylcarbamoylmethyl)-2-methyl-1,2,3,4-tetrahydroisoquinoline-7-sulphonyl]-3-amidino-(S)-phenylalanyl}-4-methyl-1 2,3,6-tetrahydropyridine-2(R-carboxylic acid dihydrochloride]	2.2	54	6000
CC1=CCN(C(=O)[C@H](Cc2cccc(C(=N)N)c2)NS(=O)(=O)c2ccc3c(c2)CCN(C(C)C)CC3)[C@@H](C(=O)O)C1 [Example 8, 4-Methyl-1-{N-[3-(2-propyl]-2,3,4,5-tetrahydro-1H-3-benzazepine-7-sulphonyl-3-amidino-(S)-phenylalanyl}-1,2,3,6-tetrahydropyridine-2(R)-carboxylic acid dihydrochloride]	6.4	40	1800
CC1=CCN(C(=O)[C@H](Cc2cccc(C(=N)N)c2)NS(=O)(=O)c2ccc3c(c2)CN(Cc2ccccc2)CC3)[C@@H](C(=O)O)C1 [Example 10, 1-[N-(2-Benzyl-1,2,3,4-tetrahydroisoquinoline-7-sulphonyl)-3-amidino-(S)-phenylalanyl]-4-methyl-1,2,3,6-tetrahydropyridine-2(R)-carboxylic acid dihydrochloride]	1	48	180
C[C@@H]1CCN(C(=O)C(Cc2cccc(C(=N)N)c2)NS(=O)(=O)c2ccc3c(c2)CN(C)CC3)[C@@H](C(=O)O)C1 (stereo partly drawn) [Example 13, 4(R)-Methyl-1-[N-(2-methyl-1,2,3,4-tetrahydroisoquinoline-7-sulphonyl)-3-amidino-(R,S)-phenylalanyl]piperidine-2(R)-carboxylic acid dihydrochloride]	4	49	12000
CC1=CCN(C(=O)[C@H](Cc2cccc(C(=N)N)c2)NS(=O)(=O)c2ccc3c(c2)CNCC3)C(C(=O)O)C1 (stereo partly drawn) [Example 15, 4-Methyl-1-[N-(1,2,3,4-tetrahydroisoquinoline-7-sulphonyl)-3-amidino-(S)-phenylalanvl]-1,2,3,6-tetrahydropyridine-2(R,S)-carboxylic acid dihydrochloride]	78	320	14000
